In paper PMC4945863, “Dual thio-digalactoside-binding modes of human galectins as the structural basis for the design of potent and selective inhibitors” (Scientific Reports, 2016):

Key:
galectin-3 [1] = settings: cited from earlier work
galectin-1 = molecular target: T1, galectin-1 (Homo sapiens, UniProt P09382); test: Isothermal titration calorimetry (ITC), galectin-1; assay type: binding
T1 construct: full-length galectins-1 (residues 1-135); 6xHis; made in house; host or cells: Escherichia coli BL21 (DE3)
T1 sequence (P09382 whole entry, the tested form may be a part): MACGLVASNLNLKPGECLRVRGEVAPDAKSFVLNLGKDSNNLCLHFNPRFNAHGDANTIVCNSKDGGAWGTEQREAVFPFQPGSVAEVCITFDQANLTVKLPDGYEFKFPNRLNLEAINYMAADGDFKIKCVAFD
Procedure: (§1) Human galectins-1, -3CRD and -7 were produced in E. coli according to previous studies.
(§2) Samples for use in ITC were diluted to appropriate concentrations in dialysate buffer (25 mM Tris-HCl pH 8.0, 300 mM NaCl and 5 mM β-mercaptoethanol) saved from the ultrafiltration step. All samples were filtered with 0.22 μm cutoff filters (Millipore) and extensively degassed with stirring prior to use. […] To avoid heating effects due to differing concentration of DMSO in the injectant and protein solutions, 5% DMSO was added to the protein. Software provided by Microcal was used for the curve fitting of the experimental data as well as for calculation of the thermodynamic data. Specifically, all ITC data were corrected for the heat of dilution of the titrant by subtracting the excess heats at high molar ratios of ligands to galectins. Binding stoichiometry, enthalpy and equilibrium association constants were determined by fitting the corrected data to a bimolecular interaction model and summarised in Table 1.
(§3) Isothermal titration calorimetry (ITC). Samples for use in ITC were diluted to appropriate concentrations in dialysate buffer (25 mM
(§4) Tris-HCl pH 8.0, 300 mM NaCl and 5 mM β-mercaptoethanol) saved from the ultrafiltration step. All samples were filtered with […] cutoff filters (Millipore) and extensively degassed with stirring prior to use.
(§5) Isothermal titration calorimetry was performed using MicroCal
(§6) Auto-iTC200 (MicroCal, INc., Northampton, MA) at 298K. […]
(§7) order to avoid heating effects due to differing concentration of DMSO in the injectant and protein solutions, 5% DMSO was added to the protein.
(§8) Software provided by Microcal was used for the curve fitting of the experimental data as well as for calculation of the thermodynamic data.
(§9) Specifically, all ITC data were corrected for the heat of dilution of the titrant by subtracting the excess heats at high molar ratios of ligands to galectins. Binding stoichiometry, enthalpy and equilibrium association constants were determined by fitting the corrected data to a bimolecular

galectin-3 [2] = molecular target: T2, galectin-3 (Homo sapiens, UniProt P17931); test: Isothermal titration calorimetry (ITC), galectin-3; assay type: binding
T2 construct: CRD domain of galectin-3 (residues 113-250); 6xHis; made in house; host or cells: Escherichia coli BL21 (DE3)
T2 sequence (P17931 113-250): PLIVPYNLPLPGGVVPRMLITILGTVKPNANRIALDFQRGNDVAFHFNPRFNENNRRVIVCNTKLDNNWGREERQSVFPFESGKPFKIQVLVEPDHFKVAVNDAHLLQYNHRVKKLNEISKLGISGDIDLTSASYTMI
Procedure: as §1, §2, §3, §4, §5, §6, §7, §8, §9

galectin-7 = molecular target: T3, galectin-7 (Homo sapiens, UniProt P47929); test: Isothermal titration calorimetry (ITC), galectin-7; assay type: binding
T3 construct: (residues 1-136); 6xHis; made in house; host or cells: Escherichia coli BL21 (DE3)
T3 sequence (P47929 whole entry, the tested form may be a part): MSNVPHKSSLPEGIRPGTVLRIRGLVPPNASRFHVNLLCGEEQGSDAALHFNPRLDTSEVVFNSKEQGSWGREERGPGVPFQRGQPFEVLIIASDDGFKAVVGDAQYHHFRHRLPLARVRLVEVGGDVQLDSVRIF
Procedure: as §1, §2, §3, §4, §5, §6, §7, §8, §9

Row | Compound | -TΔS (galectin-1; 298 K) [kcal/mol] | n (stoichiometry) (galectin-1; 298 K) | ΔH (galectin-1; 298 K) [kcal/mol] | -TΔS (galectin-3 [2]; ITC, 298 K) [kcal/mol] | n (stoichiometry) (galectin-3 [2]; ITC, 298 K) | ΔG (galectin-3 [2]; ITC, 298 K) [kcal/mol] | ΔH (galectin-3 [2]; ITC, 298 K) [kcal/mol] | -TΔS (galectin-7; 298 K) [kcal/mol] | Kd (galectin-7; 298 K) [µM] | n (stoichiometry) (galectin-7; 298 K) | ΔG (galectin-7; 298 K) [kcal/mol] | ΔH (galectin-7; 298 K) [kcal/mol] | also measured
1 | 3′-(4-methoxy-2,3,5,6-tetrafluorobenzamido)-N-acetyl-lactosamine [L3] |  |  |  |  |  |  |  |  |  |  |  |  | Kd (galectin-3 [1]): 3.3 µM
2 | OC[C@H]1O[C@@H](S[C@@H]2O[C@H](CO)[C@H](O)[C@H](n3cc(-c4cccc(F)c4)nn3)[C@H]2O)[C@H](O)[C@@H](O)[C@H]1O [TAZTDG, 3-deoxy-3-(4-[m-fluorophenyl]-1H-1,2,3-triazol-1-yl)-thio-digalactoside] | 8.6 ± 0.51 | 1.06 ± 0.01 | -16.1 ± 0.51 | 6.4 ± 1.02 | 0.92 ± 0.08 | -8.3 ± 0.25 | -14.7 ± 0.99 | 4.4 ± 0.04 | 87 ± 3.21 | 0.89 ± 0.01 | -5.5 ± 0.01 | -10.0 ± 0.04 | Kd (galectin-1; 298 K): 3.24 ± 0.3 µM; ΔG (galectin-1; 298 K): -7.5 ± 0.05 kcal/mol; Relative affinity (galectin-1; 298 K, relative to TDG = 1): 20.7; ΔΔH(TAZTDG–TDG) (galectin-1; galectin-1): -4.5 kcal/mol; Kd (galectin-3 [2]; ITC, 298 K, galectin-3CRD): 0.84 ± 0.41 µM; Relative affinity (galectin-3 [2]; ITC, 298 K, relative to TDG = 1): 89.7; ΔΔH(TAZTDG–TDG) (galectin-3 [2]; ITC, galectin-3): -5.3 kcal/mol; Relative affinity (galectin-7; 298 K, relative to TDG = 1): 6.6; ΔΔH(TAZTDG–TDG) (galectin-7; galectin-7): -2.4 kcal/mol
3 | OC[C@H]1O[C@@H](S[C@@H]2O[C@H](CO)[C@H](O)[C@H](n3cc(-c4cccc(F)c4)nn3)[C@H]2O)[C@H](O)[C@@H](n2cc(-c3cccc(F)c3)nn2)[C@H]1O [TD139, 3,3’-deoxy-3,3’-bis-(4-[m-fluorophenyl]-1H-1,2,3-triazol-1-yl)-thio-digalactoside] | 7.6 ± 0.43 | 0.96 ± 0.04 | -16.7 ± 0.40 | 8.3 ± 0.90 | 0.96 ± 0.01 | -9.9 ± 0.37 | -18.2 ± 0.82 | 3.2 ± 0.09 | 38 ± 0.71 | 0.99 ± 0.10 | -6.1 ± 0.06 |  | binding enhancement compared with binding to TDG (galectin-1; galectin-1): ~ 300 fold; ΔΔH(TD139–TAZTDG) (galectin-1; galectin-1): -0.6 kcal/mol; binding enhancement compared with TDG (galectin-3 [2]; ITC, galectin-3): ~ 1000 fold; change in binding free energy ΔΔG(TD139-TDG) (galectin-3 [2]; ITC, galectin-3): -4.3 kcal/mol; enthalpy change ΔΔH(TD139-TDG) (galectin-3 [2]; ITC, galectin-3): -8.8 kcal/mol; entropy change –TΔΔS(TD139-TDG) (galectin-3 [2]; ITC, galectin-3): 4.6 kcal/mol; ΔΔH(TD139–TAZTDG) (galectin-3 [2]; ITC, galectin-3): -3.5 kcal/mol; increase in binding affinity compared with L3 (galectin-3 [2]; galectin-3, versus literature Kd of L3): 50 fold; difference in binding free energy ΔΔG(TD139-TDG) (galectin-7; galectin-7): -1.7 kcal/mol; increase in affinity compared with TDG binding (galectin-7; galectin-7): 15 fold; ΔΔH(TD139–TAZTDG) (galectin-7; galectin-7): 0.7 kcal/mol
4 | OC[C@H]1O[C@@H](S[C@@H]2O[C@H](CO)[C@H](O)[C@H](O)[C@H]2O)[C@H](O)[C@@H](O)[C@H]1O [TDG, thio-digalactoside] | 5.9 ± 0.27 | 1.02 ± 0.10 | -11.6 ± 0.26 | 3.7 ± 0.48 | 1.02 ± 0.05 |  | -9.4 ± 0.48 | 3.2 ± 0.55 |  | 0.94 ± 0.02 | -4.4 ± 0.06 | -7.6 ± 0.55 | 
